For this experiment, the system named is AMPK. Put plainly: AMPK activation assay (enzyme-linked immunosorbent assay). The format is cell-based. The method in brief:
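Test compounds were added, and kinase activation was then detected by immunoassay following established kit procedures.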

Each structure is given as a SMILES string. Some results are limits rather than exact numbers.

As to `COc1cccc(CN2CCC(NC(=O)c3ccc(C(=O)N4CCC(Oc5ccc(S(C)(=O)=O)cc5)CC4)cn3)CC2)c1` [Compound 241, N-(1-(3-methoxybenzyl)piperidin-4-yl)-5-(4-(4-(methylsulfonyl)phenoxy)piperidine-1-carbonyl)picolinamide], the concentration giving a half-maximal response (EC50) is less than 0.5 µM. On to `Cc1cc(CN2CCC(NC(=O)c3ccc(C(=O)N4CCN(Cc5ccc(F)cc5)CC4)cn3)CC2)ccc1F` [Compound 50, 5-(4-(4-fluorobenzyl)piperazine-1-carbonyl)-N-(1-(4-fluoro-3-methylbenzyl)piperidin-4-yl)picolinamide], for which the concentration giving a half-maximal response (EC50) was less than 0.5 µM. `N#Cc1ccc(CN2CCC(NC(=O)c3ccc(N4CCC(Oc5ccc(C#N)cc5)CC4)nn3)CC2)cc1` [Compound 351, N-(1-(4-cyanobenzyl)piperidin-4-yl)-6-(4-(4-cyanophenoxy)piperidin-1-yl) pyridazine-3-carboxamide] showed an EC50 of less than 0.5 µM. In turn, `Cc1cccc(Oc2ccc(NC(=O)c3ccc(C(=O)N4CCN(Cc5ccc(F)cc5)CC4)cn3)cc2)c1` [Compound 58, 5-(4-(4-fluorobenzyl)piperazine-1-carbonyl)-N-(4-(3-methylphenoxy)phenyl)picolinamide] displayed an EC50 of less than 0.5 µM. Compound `COc1cccc(CN2CCC(NC(=O)c3ccc(C(=O)N4CCC(S(=O)(=O)c5ccc(F)cc5)CC4)nc3)CC2)c1` [Compound 475, 6-(4-(4-fluorophenylsulfonyl)piperidine-1-carbonyl)-N-(1-(3-methoxybenzyl)piperidin-4-yl)nicotinamide] yielded an EC50 of 1 to 5 µM. `COc1ccc(C(=O)C2CCN(C(=O)c3ccc(C(=O)Nc4ccc(Oc5ccc(C#N)cc5)nc4C)cn3)CC2)cc1` [Compound 478, N-(6-(4-cyanophenoxy)-2-methylpyridin-3-yl)-6-(4-(4-methoxybenzoyl)piperidine-1-carbonyl)nicotinamide] had an EC50 of less than 0.5 µM. The compound `O=C(Nc1ccc(OCc2ccccc2)cc1)c1ccc(C(=O)N2CCN(Cc3ccc(F)cc3)CC2)cn1` [Compound 27, N-(4-benzyloxyphenyl)-5-(4-(4-fluorobenzyl)piperazine-1-carbonyl)picolinamide] yielded an EC50 of 0.5 to 1 µM. For `COc1ccc(C(=O)C2CCN(C(=O)c3ccc(C(=O)NC4CCN(Cc5ccc(F)cc5)CC4)cn3)CC2)cc1` [Compound 317, N-(1-(4-fluorobenzyl)piperidin-4-yl)-6-(4-(4-methoxybenzoyl)piperidine-1-carbonyl)nicotinamide], the 50% effective concentration (EC50) is less than 0.5 µM. Take `N#Cc1ccc(CN2CCC(NC(=O)c3ccc(C(=O)N4CCC(Cc5ccc(F)cc5)CC4)cn3)CC2)cc1` [Compound 130, N-(1-(4-cyanobenzyl)piperidin-4-yl)-5-(4-(4-fluorobenzyl)piperidine-1-carbonyl)picolinamide]: the EC50 is less than 0.5 µM. In the case of `COc1ccc(CN2CCC(NC(=O)c3ccc(C(=O)N4CCC(C(=O)c5ccc(F)c(F)c5)CC4)cn3)CC2)cc1` [Compound 329, 5-(4-(3,4-difluorobenzoyl)piperidine-1-carbonyl)-N-(1-(4-methoxybenzyl)piperidin-4-yl) picolinamide], the EC50 was less than 0.5 µM. For `O=C(Nc1cccc(-c2ccccc2)c1)c1ccc(C(=O)NC2CCN(Cc3ccccc3)CC2)nc1` [Compound 106, N2-(1-benzylpiperidin-4-yl)-N5-(biphenyl-3-yl)pyridine-2,5-dicarboxamide], the EC50 lay in the range of 5 to 10 µM.

In turn, `N#Cc1ccc(CN2CCC(NC(=O)c3ccc(C(=O)N4CCN(c5ccc(F)cc5)CC4)cn3)CC2)cc1` [Compound 341, N-(1-(4-cyanobenzyl)piperidin-4-yl)-5-(4-(4-fluorophenyl)piperazine-1-carbonyl)picolinamide] gave an EC50 of less than 0.5 µM. Take `O=C(NC1CCN(Cc2ccc(N3CCCC3)cc2)CC1)c1ccc(C(=O)N2CCC(Oc3ccc(S(=O)(=O)C4CC4)cc3)CC2)nc1` [Compound 248, 6-(4-(4-(cyclopropylsulfonyl)phenoxy)piperidine-1-carbonyl)-N-(1-(4-(pyrrolidin-1-yl)benzyl)piperidin-4-yl)nicotinamide]: the EC50 was less than 0.5 µM. To `CC(=O)Nc1ccc(OC2CCN(C(=O)c3ccc(C(=O)Nc4ccc(Oc5ccc(F)cc5)nc4)nc3)CC2)cc1` [Compound 408, 5-(4-(4-acetamidophenoxy)piperidine-1-carbonyl)-N-(6-(4-fluorophenoxy)pyridin-3-yl)picolinamide] belongs less than 0.5 µM; to `O=C(Nc1ccc(Oc2ccc(F)cc2)nc1)c1ccc(C(=O)N2CCN(Cc3ccc(F)cc3)CC2)nc1` [Compound 334, 6-(4-(4-fluorobenzyl)piperazine-1-carbonyl)-N-(6-(4-fluorophenoxy)pyridin-3-yl)nicotinamide], less than 0.5 µM. Regarding `O=C(NC1CCN(Cc2cc(F)cc(F)c2)CC1)c1ccc(C(=O)N2CCC(Oc3ccc(C(F)(F)F)cc3)CC2)cn1` [Compound 294, N-(1-(3,5-difluorobenzyl)piperidin-4-yl)-5-(4-(4-(trifluoromethyl)phenoxy)piperidine-1-carbonyl)picolinamide], the concentration for a half-maximal effect (EC50) is less than 0.5 µM. `N#Cc1ccc(CN2CCC(NC(=O)c3ccc(C(=O)N4CCN(CC5CCCCC5)CC4)cn3)CC2)cc1` [Compound 95, N-(1-(4-cyanobenzyl)piperidin-4-yl)-5-(4-(cyclohexylmethyl)piperazine-1-carbonyl)picolinamide] showed an EC50 of less than 0.5 µM.

With `N#Cc1ccc(CN2CCC(NC(=O)c3ccc(NC4CCN(c5ccc(F)cc5)CC4)cn3)CC2)cc1` [Compound 276, N-(1-(4-cyanobenzyl)piperidin-4-yl)-5-(1-(4-fluorophenyl)piperidin-4-ylamino)picolinamide], the EC50 was less than 0.5 µM. For the compound `COc1ccc(C(=O)C2CCN(C(=O)c3ccc(C(=O)Nc4ccc(Oc5ccc(C(C)=O)cc5)nc4)cn3)CC2)cc1` [Compound 462, N-(6-(4-acetylphenoxy)pyridin-3-yl)-6-(4-(4-methoxybenzoyl)piperidine-1-carbonyl)nicotinamide], the EC50 is less than 0.5 µM. Compound `N#Cc1ccc(CN2CCC(NC(=O)c3ccc(C(=O)N4CCC(Oc5ccc(S(F)(F)(F)(F)F)cc5)CC4)nc3)CC2)cc1` [Compound 493, N-(1-(4-cyanobenzyl)piperidin-4-yl)-6-(4-(4-(pentafluorosulfanyl)phenoxy)piperidine-1-carbonyl)nicotinamide] gave a concentration for a half-maximal effect (EC50) of less than 0.5 µM. For `N#Cc1ccc(CN2CCC(NC(=O)c3ccc(C(=O)N4CCCC(Oc5ccc(C#N)cc5)C4)cn3)CC2)cc1` (stereo not drawn) [Compound 137, N-(1-(4-cyanobenzyl)piperidin-4-yl)-5-(3-(4-cyanophenoxy)piperidine-1-carbonyl)picolinamide] the value was less than 0.5 µM; for `CS(=O)(=O)c1ccc(OC2CCN(C(=O)c3ccc(C(=O)Nc4ccc(Oc5ccc(F)cc5)nc4)nc3)CC2)cc1` [Compound 231, N-(6-(4-fluorophenoxy)pyridin-3-yl)-5-(4-(4-(methylsulfonyl)phenoxy)piperidine-1-carbonyl)picolinamide], less than 0.5 µM; for `O=C(NC1CCN(Cc2ccc(F)cc2)CC1)c1ccc(C(=O)N2CCC(C(=O)c3ccc(N4CCCC4)cc3)CC2)nc1` [Compound 381, N-(1-(4-fluorobenzyl)piperidin-4-yl)-6-(4-(4-(pyrrolidin-1-yl)benzoyl)piperidine-1-carbonyl)nicotinamide], less than 0.5 µM. For `O=C(Nc1ccc(-c2ccsc2)cc1)c1ccc(C(=O)N2CCN(Cc3ccc(F)cc3)CC2)cn1` [Compound 62, 5-(4-(4-fluorobenzyl)piperazine-1-carbonyl)-N-(4-(thiophen-3-yl)phenyl)picolinamide] the value was less than 0.5 µM; for `COc1ccc(C(=O)C2CCN(C(=O)c3ccc(C(=O)NC4CCNCC4)cn3)CC2)cc1` [Compound 445, 6-(4-(4-methoxybenzoyl)piperidine-1-carbonyl)-N-(piperidin-4-yl)nicotinamide], more than 10 µM; for `N#Cc1ccc(CN2CCC(NC(=O)c3ccc(Nc4ccc(-c5ccccc5)cc4)cn3)CC2)cc1` [Compound 109, 5-(biphenyl-4-ylamino)-N-(1-(4-cyanobenzyl)piperidin-4-yl)picolinamide], 5 to 10 µM. For `N#Cc1ccc(OC2CCN(C(=O)c3ccc(C(=O)NC4CCNCC4)cn3)CC2)cc1` [Compound 335, 6-(4-(4-cyanophenoxy)piperidine-1-carbonyl)-N-(piperidin-4-yl) nicotinamide] the value was more than 10 µM. The compound `CC(=O)c1ccc(Oc2ccc(NC(=O)c3ccc(C(=O)N4CCN(c5ccc(S(=O)(=O)C(C)C)cc5)CC4)nc3)cn2)cc1` [Compound 489, N-(6-(4-acetylphenoxy)pyridin-3-yl)-6-(4-(4-(isopropylsulfonyl)phenyl)piperazine-1-carbonyl)nicotinamide] returned a 50% effective concentration (EC50) of less than 0.5 µM. For `CC(C)(c1ccccc1)N1CCN(C(=O)c2ccc(C(=O)NC3CCN(Cc4ccc(C#N)cc4)CC3)nc2)CC1` [Compound 133, N-(1-(4-cyanobenzyl)piperidin-4-yl)-5-(4-(2-phenylpropan-2-yl)piperazine-1-carbonyl)picolinamide] the value was less than 0.5 µM. Regarding `N#Cc1ccc(CN2CCC(NC(=O)c3ccc(-c4cn(Cc5ccccc5)nn4)cn3)CC2)cc1` [Compound 121, 5-(1-benzyl-1H-1,2,3-triazol-4-yl)-N-(1-(4-cyanobenzyl)piperidin-4-yl)picolinamide], the concentration for a half-maximal effect (EC50) was in the range of 1 to 5 µM. For `N#Cc1ccc(CN2CCC(NC(=O)c3ccc(C(=O)N4CCC(Oc5ccc(S(=O)(=O)C(F)(F)F)cc5)CC4)cn3)CC2)cc1` [Compound 415, N-(1-(4-cyanobenzyl)piperidin-4-yl)-5-(4-(4-(trifluoromethylsulfonyl)phenoxy)piperidine-1-carbonyl)picolinamide] the value was less than 0.5 µM; for `N#Cc1ccc(CN2CCC(NC(=O)c3ccc(N4CCN(Cc5ccccc5)CC4)cn3)CC2)cc1` [Compound 110, 5-(4-benzylpiperazin-1-yl)-N-(1-(4-cyanobenzyl)piperidin-4-yl)picolinamide], 1 to 5 µM. With `CC(C)Oc1ccc(CN2CCC(NC(=O)c3ccc(C(=O)N4CCC(C(=O)c5ccc(N6CCCC6)cc5)CC4)nc3)CC2)cc1` [Compound 446, N-(1-(4-isopropoxybenzyl)piperidin-4-yl)-6-(4-(4-(pyrrolidin-1-yl)benzoyl)piperidine-1-carbonyl)nicotinamide], the concentration for a half-maximal effect (EC50) is less than 0.5 µM.

Broadly, the EC50 is the concentration giving half of the maximal effect. Low values mean greater potency, high ones weaker potency.

(Values after patent US20150087673A1, “METHODS FOR USING AND BIOMARKERS FOR AMPK-ACTIVATING COMPOUNDS” (RIGEL PHARMACEUTICALS, INC., priority 2013, published 2015).)
